Each block holds one compound with its values, some of them ahead of it. Non-standard residues stand in square brackets, D forms with d. Residues, ends and D or L forms follow the SMILES beside them. *: point of attachment. X1 = Cc1c(CC(=O)*)c(=O)oc2c(F)c(OCCCN)c(F)cc12; X2 = Cc1c(CC(=O)*)c(=O)oc2c(F)c(O)c(F)cc12; dCha = N[C@H](CC1CCCCC1)C(=O)O; Ahx = NCCCCCC(=O)O
Key:
[1] = test system: amine-oxidase (LOX) in skin wound; experiment: In vivo intradermal administration to mice, histological analysis of skin wound; conditions: for fluorescence in cross section of wound after in vivo administration: 100 μM, 50 μL intradermally, skin harvested after five days
Method: Animals: Mice were housed and fed according to Swiss guidelines and all animal experiments were approved by the local veterinary authorities (Kantonales Veterinäramt Zürich). All mice used for these experiments are on a C57BL/6 background. Administration of Compounds 3, 4 and 5 into skin: Peptide solutions at 100 μM were brought to room temperature for 30 min. Male or female mice at 8 weeks of age were anesthetized by intraperitoneal injection of ketamine/xylazine (100 mg ketamine/5-10 mg xylazine per kg body weight), skin shaved and an injection of 50 μL was made intradermally into the back skin. Mice were housed for an additional five days and then skin harvested for histological analysis.
Skin tissue used for histology was harvested and immediately embedded and frozen in tissue freezing Medium® (Leica Biosystems, Wetzlar, Germany). Tissue sections (7 μM) were fixed using ice-cold acetone for 10 min at −20° C. and stained with propidium iodide to visualize nuclei. Images were taken using a 20× objective. For immunofluorescent analysis of collagen, antibodies against collagen I (Southern Biotech, Birmingham, AL, USA; 1310-01) or collagen III (Abcam, Cambridge, UK, ab7778) were used. Fixed tissue sections were incubated with 1% bovine serum albumin (BSA) in PBS for 30 min followed by collagen I (1:400 dilution in 1% BSA) or collagen III (1:800 dilution in 1% BSA) antibodies for 60 min at room temperature. After washing (3×5 min PBS), secondary antibodies (anti-rabbit AF488 (711-547-003) or anti-goat AF488 (705-545-147), Jackson ImmunoResearch) were incubated on the tissues for 30 min at room temperature (both at 1:400 dilution in 1% BSA) and nuclei visualized using propidium iodide. All images were taken using a 20× objective.

SSC13 ear tumor = experiment: Staining of SSC13 ear tumor tissue sections; conditions: 100 μM in PBS, 4 hours at 37° C.
Method: Skin tissue used for histology was harvested and immediately embedded and frozen in tissue freezing Medium® (Leica Biosystems, Wetzlar, Germany). Tissue sections (7 uM) were treated by the addition of 50 μL of each compound at 100 μM in PBS (Compounds 3, 4, 5, or 6) by pipette to completely cover the surface of the section, incubated at 37° C. for 4 hours in the dark, and washed 2× with PBS. Sections were fixed using ice-cold acetone for 10 min at −20° C. and stained with propidium iodide to visualize nuclei. Images were taken using a 20× objective.
For immunofluorescent analysis of collagen, antibodies against collagen I (Southern Biotech, 1310-01) or collagen III (Abcam, ab7778) were used. Fixed tissue sections were incubated with collagen I or collagen III antibodies for 60 min at room temperature. After washing, secondary antibodies (anti-rabbit AF488 (711-547-003) or anti-goat AF488 (705-545-147), Jackson ImmunoResearch) were incubated on the tissues for 30 min at room temperature and nuclei visualized using propidium iodide. All images were taken using a 20× objective.

[2] = test system: LOX activity in mouse tissue homogenate; experiment: Ex vivo fluorescence assay of amine oxidase (LOX) activity in mouse tissue homogenate; assay type: biochemical; conditions: for fluorescent signal (RFU) with skin homogenate, comparison with oLOX probe: 10 μM, 24 h at 37° C., each at its absorbance and emission maximum
Method: (§1) Fluorescence experiments for determining amine oxidase activity of a given enzyme are conducted using a fluorescence plate reader and a standard 96-well black polystyrene plate with a clear flat bottom. To the plate 150 μL of the following solutions are added to individual wells, e.g. with at least three replicates: buffer (e.g. 25 mM at pH 7.5), a solution in buffer of the amine-oxidase reactive probe, e.g. Compound 2, (e.g. at 100 μM), a buffered solution of the sample containing an amine-oxidase at the desired concentration(s) (e.g. 40 μg/mL), and a buffered solution of the sample containing amine-oxidases with addition of the probe, e.g. Compound 2, (e.g. at 100 μM). The plate is incubated in the dark at 37° C. for a period of time between 15 min and 24 hours before measurements are taken. Fluorescence is measured by exciting the unmasked probe at the absorbance maximum (e.g. 360 nm) or at 405 nm, and measuring the fluorescence at the emission maximum of the probe, for example at 460 nm. Enzyme activity is observed as fluorescence measured relative to the untreated controls, for example as expressed in relative fluorescent units (RFUs). […] Any change, optionally any statistically relevant change, in fluorescence relative to the untreated controls is indicative of amine oxidase activity.
Skin tissue used for enzymatic analysis of LOX activity was harvested (1 cm×1 cm) and placed in 2 ml of ice-cold PBS. Skin tissue was homogenized using an Ultra-TURRAX homogenizer (KA®-Werke GmbH & CO. KG, Staufen, Germany) and samples were spun at 2000×g to pellet out tissue debris. The supernatant was further purified using a 0.2 μm filter. Tissue homogenates were then evaluated with regard to total in solution protein retrieval using a nanospec absorbance measurement standardized to BSA at 1 mg/mL (Pierce™, Thermo Fisher Scientific Inc, Waltham, USA). Homogenates were diluted to appropriate concentrations (e.g. 1 mg/ml total protein) with 25 mM PIPES, 0.5% Triton X-100 (Sigma Aldrich, St Louis, […], USA) and pre-incubated with the probe (10 μM or 100 μM) at 37° C. in the dark for the designated period of time prior to fluorescence measurements. The resultant fluorescence was then measured using a Tecan Spark 10M Multi-Mode Microplate Reader (Tecan, Männedorf, Switzerland) at ambient temperature with a filter for excitation/emission (e.g. 405/460 nm respectively) as defined for the experiment. Activity is observed as fluorescence measured, and is expressed in relative fluorescent units (RFUs). Graphical presentation and statistical analysis were carried out using Graphpad Prism 7 software, (GraphPad Software, Inc., San Diego, USA.) with statistical significance determined as p<0.05.

[3] = Absorption and emission spectroscopy, quantum yield; assay type: physicochemical; conditions: excitation wavelength used for the emission scans of FIG. 2
Method: Absorption and emission spectroscopy. UV-visible spectra were obtained with a Cary-500 Scan spectrophotometer. The spectra were measured in quartz cuvettes (ThorLabs, CV10Q3500, Newton, NJ USA). Samples were irradiated with an LED transilluminator (Roithner Lasertechnik, LED405-06V, Vienna, Austria) emitting at a wavelength as stated with an incident intensity of ca. 2 mW cm^−2, measured with a power-meter (ThorLabs, PM100D, Newton, NJ USA) equipped with a Si photodiode detector (ThorLabs, S120VC, Newton, NJ USA). Fluorescence spectroscopy was measured in a Fluorolog 3 fluorimeter (Horiba Jobin-Yvon, Germany) fluorimeter with a cuvette sample changer for quartz cuvettes (ThorLabs, CV10Q3500F-E, Newton, NJ USA). All measurements were conducted at 25° C. in 50 mM PBS pH 7.4 buffer solution under red light for ambient illumination to avoid photoactivation.

[4] = target: T1, recombinant human monoamine oxidase B (MAO-B) (Homo sapiens, UniProt P27338); experiment: Fluorescence assay with recombinant monoamine oxidase B; assay type: biochemical; conditions: 100 μM, 2 h at 37° C., Ex/Em 405/460 nm
T1 sequence (P27338 1-520): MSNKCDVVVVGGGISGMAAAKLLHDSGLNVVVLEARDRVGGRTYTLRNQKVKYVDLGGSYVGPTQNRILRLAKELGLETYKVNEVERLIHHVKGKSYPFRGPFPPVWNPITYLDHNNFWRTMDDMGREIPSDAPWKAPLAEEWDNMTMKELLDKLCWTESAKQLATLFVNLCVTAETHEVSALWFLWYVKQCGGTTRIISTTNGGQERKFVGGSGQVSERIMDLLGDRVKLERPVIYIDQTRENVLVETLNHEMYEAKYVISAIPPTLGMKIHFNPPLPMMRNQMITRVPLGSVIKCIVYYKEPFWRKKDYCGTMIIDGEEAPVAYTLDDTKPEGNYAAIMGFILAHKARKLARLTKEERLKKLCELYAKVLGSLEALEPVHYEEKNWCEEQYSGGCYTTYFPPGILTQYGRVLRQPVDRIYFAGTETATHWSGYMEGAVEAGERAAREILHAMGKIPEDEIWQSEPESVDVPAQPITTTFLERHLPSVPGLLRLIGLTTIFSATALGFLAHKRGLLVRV
Method: as §1

[5] = test system: MAO A/MAO B in MCF-7 cells; experiment: Confocal microscopy of MCF-7 cells treated with MAO probes; assay type: cell-based; design: blue channel (405 nm) fluorescence of the probe / colocalization with MitoTracker Red (405 nm and 561 nm overlay): dose or concentration left out as unconfirmed
Method: Cell culture: MCF-7 and SY5Y cells were obtained from the Health Protection Agency (www.HPA.org.uk) or the American Type Culture Collection. […] Culture medium DMEM high glucose, F-12KTM, L-glutamine (200 mM), penicillin (10.000 U/mL), streptomycin (10 mg/mL), and trypan blue solution were purchased from Sigma, Invitrogen, ATCC or BioConcept. Trypsin-EDTA (0.05%/0.02%) in Ca2+- and Mg2+-deficient phosphate buffered saline (PBS) (1:250) was purchased from Amimed. PBS (pH 7.4) was purchased from Invitrogen. […] Cell culture flasks as well as serological pipettes were purchased from BD Biosciences and Sarstedt. Ethylenediaminetetraacetic acid (EDTA) was purchased from Sigma-Aldrich. Hoechst 33342 was purchased from Invitrogen. MitoTracker Red mitochondrial staining dye and live cell imaging solution were purchased from ThermoFisher.
Confocal Microscopy: Fluorescence images of cells were collected using a Nikon Eclipse T1 microscope equipped with a Yokogawa spinning-disk confocal scanner unit CSU-W1-T2, two sCMOS cameras (Orca Flash 4.0 V2) and a LUDL BioPrecision2 stage with piezo focus. Emission in the blue channel was filtered with a 450/50 bandpass filter, emission in the green channel was filtered with a 525/50 bandpass filter and emission in the far-red channel with a 700/75 bandpass filter. Fluorescence images were obtained using an oil-immersion objective with a magnification of 100×1.49 CFI Apo TIRF. The microscope was operated using VisiVIEW (Metamorph).
Prior to the measurement, cells were seeded at a density of 10′000 cells/well in ibidi 8-well plates and were grown for 1 day in DMEM (10% FCS) at 37° C. Afterwards cells were washed with PBS and fresh DMEM was added. Compounds were added to the cells as stock solutions in PBS to reach the final […] concentration. […] Cells were washed with PBS and the live cell imaging solution (200 μL) was added. The live cells were then immediately examined on a confocal microscope (Vistron Spinning Disk). For detection of the coumarin-activation a laser line 405 nm and for MitoTracker a laser line of 561 nm was used.

[6] = 1 h pretreatment with Selegiline, then 10 mM probe 1 h

Compound: 1-Ahx-[ProHypGly]7—NH2 [Compound 4]
- fluorescence in cross section of wound after in vivo administration [1]: fluorescence can be clearly visualized at the locations where the peptide-bound probe has been unmasked

Compound: 1-Ahx-[ProProGly]7—NH2 [Compound 5]
- fluorescence in cross section of wound after in vivo administration [1]: fluorescence can be clearly visualized at the locations where the peptide-bound probe has been unmasked

Compound: 1-[ProHypGly]3-AopProGly-[ProHypGly]3—NH2 [Compound 3]
- fluorescence in cross section of wound after in vivo administration [1]: fluorescence can be clearly visualized at the locations where the peptide-bound probe has been unmasked
- localization of the probe in the wound ([1]; FIG. 31 (a) center): localizes the probe to collagen and elastin at the sites of LOX-mediated crosslinking
- blue fluorescence of the probe in tumor section (SSC13 ear tumor): seen around the periphery of the tumor but is strongest near the side of attachment to the cartilage

Compound: 3-carboxy-6,8-difluoro-7-(4-((tert-butoxycarbonyl)amino)propoxy)-coumarin [Compound 1]
- HPLC-MS trace of enzymatic conversion ([2]; after 18 h incubation, UV detection at 254 nm): enzymatic conversion of Compound 1 to PB

Compound: 3-carboxy-6,8-difluoro-7-(4-((tert-butoxycarbonyl)amino)propoxy)-coumarin [Compound 2]
- fluorescent signal (RFU) with skin homogenate, comparison with oLOX probe [2]: significant increase in fluorescent signal
- fluorescent signal (RFU) with heat-denatured skin homogenate ([2]; 100 μM, 1 h at 37° C., homogenate denatured 1.5 h at 90° C., Ex/Em 405/460 nm): significant decrease in fluorescent signal
- fluorescent signal (RFU) with BAPN-inhibited skin homogenate ([2]; 100 μM, 1 h at 37° C., homogenate pretreated with 100 μM BAPN for 2 h, Ex/Em 405/460 nm): significant decrease in fluorescent signal
- fluorescent signal (RFU) with lung, skin and liver homogenates ([2]; 100 μM, 18 h at 37° C., Ex/Em 405/460 nm): most significant increase in fluorescent signal was obtained for skin tissue type
- absorbance maximum [3]: 313 nm
- fluorescent signal (RFU) with MAO-B compared to controls [4]: significant increase in fluorescent signal

Compound: Cc1c(CC(=O)NCCCCCC(=O)N[C@H](CC2CCCCC2)C(=O)N[C@H](CCCNC(=N)N)C(=O)N[C@H](CC2CCCCC2)C(=O)N[C@H](CCCNC(=N)N)C(=O)N[C@H](CC2CCCCC2)C(=O)N[C@H](CCCNC(=N)N)C(N)=O)c(=O)oc2c(F)c(O)c(F)cc12 [PB peptide, PB-Ahx-(ChaR)3—NH2, reference compound] ({X2-Ahx}-[dCha][dR][dCha][dR][dCha][dR]-NH2)
- blue channel (405 nm) fluorescence of the probe ([5]; 1 h): fluorescence of the probe
- colocalization with MitoTracker Red (405 nm and 561 nm overlay) ([5]; 1 h): lack colocalization

- fluorescent signal (RFU) with skin homogenate, comparison with oLOX probe [2]: ns
Compound: Cl.Cl.NCCCOc1ccc2c(c1)Oc1cc(OCCCN)ccc1C21OC(=O)c2ccccc21 [oLOX, 3′,6′-Bis(3-aminopropoxy)-3H-spiro[2-benzofuran-1,9′-xanthen]-3-one dihydrochloride, reference compound]

Compound: Cc1c(CC(=O)NCCCCCC(=O)N[C@H](CC2CCCCC2)C(=O)N[C@H](CCCNC(=N)N)C(=O)N[C@H](CC2CCCCC2)C(=O)N[C@H](CCCNC(=N)N)C(=O)N[C@H](CC2CCCCC2)C(=O)N[C@H](CCCNC(=N)N)C(N)=O)c(=O)oc2c(F)c(OCCCN)c(F)cc12 [peptide MAO probe, 1-Ahx-[Char]3—NH2] ({X1-Ahx}-[dCha][dR][dCha][dR][dCha][dR]-NH2)
- blue channel (405 nm) fluorescence of the probe after MAO-B inhibitor [5, 6]: very little fluorescence
- colocalization with MitoTracker Red after MAO-B inhibitor [5, 6]: only poor colocalization
